This is an account of results in ChEMBL document CHEMBL4359868, “New anthranilic acid-incorporating N-benzenesulfonamidophthalimides as potent inhibitors of carbonic anhydrases I, II, IX, and XII: Synthesis, in vitro testing, and in silico assessment” (Eur J Med Chem, 2019).

For orientation: Ki means the dissociation constant of the complex between target and ligand, obtained from inhibition or displacement. What is called inhibition is the drop in the measured response relative to a control, in per cent.

Experiment [1] concerns the target T1, Carbonic anhydrase 9 (Homo sapiens, UniProt Q16790).
Description: Inhibition of recombinant human CA9 preincubated for 15 mins by phenol red dye-based stopped-flow CO2 hydration assay
A further experiment addresses Carbonic anhydrase 12 (Homo sapiens, UniProt O43570).
The next experiment deals with Carbonic anhydrase 2 (Homo sapiens, UniProt P00918). As to the kind of experiment: Inhibition of recombinant human CA2 preincubated for 15 mins by phenol red dye-based stopped-flow CO2 hydration assay.
For another experiment, the target named is Carbonic anhydrase 1 (Homo sapiens, UniProt P00915). As to the kind of experiment: Inhibition of recombinant human CA1 preincubated for 15 mins by phenol red dye-based stopped-flow CO2 hydration assay.
Chain of Carbonic anhydrase 1 (P00915 whole entry): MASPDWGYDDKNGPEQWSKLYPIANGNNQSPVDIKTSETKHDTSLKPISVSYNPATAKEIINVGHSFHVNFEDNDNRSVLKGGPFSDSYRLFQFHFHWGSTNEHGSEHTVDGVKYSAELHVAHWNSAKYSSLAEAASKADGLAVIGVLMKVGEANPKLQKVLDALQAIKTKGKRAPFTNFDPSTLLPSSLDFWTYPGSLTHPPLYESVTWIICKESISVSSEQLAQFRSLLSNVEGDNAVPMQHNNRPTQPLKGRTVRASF
Experiment [2] has as its target T1, Carbonic anhydrase 9. Conditions: at 1 µM.
Description: Inhibition of recombinant human CA9 at 10^-6 M preincubated for 15 mins by phenol red dye-based stopped-flow CO2 hydration assay
Experiment [3] addresses T1, Carbonic anhydrase 9. Conditions: at 0.01 µM.
Description: Inhibition of recombinant human CA9 at 10^-8 M preincubated for 15 mins by phenol red dye-based stopped-flow CO2 hydration assay
The target in experiment [4] is T1, Carbonic anhydrase 9. To be noted: at 0.1 µM.
Description: Inhibition of recombinant human CA9 at 10^-7 M preincubated for 15 mins by phenol red dye-based stopped-flow CO2 hydration assay
Experiment [5] has as its target T1, Carbonic anhydrase 9. As to the kind of experiment: Inhibition of recombinant human CA9 at 10^-4 M preincubated for 15 mins by phenol red dye-based stopped-flow CO2 hydration assay.
The target of experiment [6] is T1, Carbonic anhydrase 9. Conditions: 10^-5 M.
Description: Inhibition of recombinant human CA9 at 10^-5 M preincubated for 15 mins by phenol red dye-based stopped-flow CO2 hydration assay

Some results are limits rather than exact numbers.

Chain of Carbonic anhydrase 12 (O43570 whole entry): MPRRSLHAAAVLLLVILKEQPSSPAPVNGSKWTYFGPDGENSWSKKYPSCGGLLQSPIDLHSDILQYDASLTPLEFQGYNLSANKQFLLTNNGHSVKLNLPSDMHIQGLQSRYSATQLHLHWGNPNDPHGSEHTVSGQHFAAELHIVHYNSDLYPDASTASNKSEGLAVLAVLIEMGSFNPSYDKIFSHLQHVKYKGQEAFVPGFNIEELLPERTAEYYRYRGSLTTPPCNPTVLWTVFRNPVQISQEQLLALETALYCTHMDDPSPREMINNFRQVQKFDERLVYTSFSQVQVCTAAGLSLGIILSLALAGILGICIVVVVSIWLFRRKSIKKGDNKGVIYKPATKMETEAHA
Description for Carbonic anhydrase 12: Inhibition of recombinant human CA12 preincubated for 15 mins by phenol red dye-based stopped-flow CO2 hydration assay

Take `COc1ccc(NC(=O)c2ccc3c(c2)C(=O)N(CCc2ccc(S(N)(=O)=O)cc2)C3=O)c(C(=O)O)c1`: the affinity on Carbonic anhydrase 9 [1], expressed as Ki, was 0.0082 µM.
The compound `NS(=O)(=O)c1ccc(CCN2C(=O)c3ccc(C(=O)Nc4ccc(Cl)cc4C(=O)O)cc3C2=O)cc1` registered a Ki at Carbonic anhydrase 9 [1] of 0.0073 µM.
On Carbonic anhydrase 9 [1], `COc1ccc(NC(=O)c2ccc3c(c2)C(=O)N(c2ccc(S(N)(=O)=O)cc2)C3=O)c(C(=O)O)c1` gave an inhibition constant (Ki) of 0.0088 µM.
Consider `COc1ccc(NC(=O)c2ccc3c(c2)C(=O)N(c2ccccc2)C3=O)c(C(=O)O)c1`, for which the Ki at Carbonic anhydrase 12 was greater than 100 µM; on Carbonic anhydrase 9 [1], 8.2 µM; at Carbonic anhydrase 2, greater than 100 µM.
With `COc1ccc(NC(=O)c2ccc3c(c2)C(=O)N(CCc2ccccc2)C3=O)c(C(=O)O)c1`, the inhibition constant Ki at Carbonic anhydrase 1 is greater than 100 µM; at Carbonic anhydrase 12, greater than 100 µM; at Carbonic anhydrase 9 [1], 31 µM; at Carbonic anhydrase 2, greater than 100 µM.
In the case of `COc1ccc(NC(=O)c2ccc3c(c2)C(=O)N(Cc2ccc(S(N)(=O)=O)cc2)C3=O)c(C(=O)O)c1`, the Ki at Carbonic anhydrase 9 [1] was 0.036 µM.
Still for that read-out and setting: to `CCOC(=O)c1ccc(N2C(=O)c3ccc(C(=O)Nc4ccc(OC)cc4C(=O)O)cc3C2=O)cc1` belongs 0.96 µM.
Turning to `O=C(Nc1ccc(Cl)cc1C(=O)O)c1ccc2c(c1)C(=O)N(CCc1ccccc1)C2=O`, the inhibition constant (Ki) at Carbonic anhydrase 1 was greater than 100 µM; at Carbonic anhydrase 12 it was greater than 100 µM; on Carbonic anhydrase 9 [1] it was 39.6 µM.
Consider `COc1ccc(NC(=O)c2ccc3c(c2)C(=O)OC3=O)c(C(=O)O)c1`, for which the inhibition constant (Ki) at Carbonic anhydrase 1, on Carbonic anhydrase 12 and on Carbonic anhydrase 9 [1] was greater than 0.1 µM each time.
In the case of `NS(=O)(=O)c1ccc(CN2C(=O)c3ccc(C(=O)Nc4ccc(Cl)cc4C(=O)O)cc3C2=O)cc1`, the inhibition constant Ki on Carbonic anhydrase 9 [1] was 0.0216 µM.
`COc1ccc(NC(=O)c2ccc3c(c2)C(=O)N(c2ccc(C(=O)O)cc2)C3=O)c(C(=O)O)c1`: on Carbonic anhydrase 9 [1], the inhibition constant (Ki) is 0.72 µM.
`O=C(Nc1ccc(Cl)cc1C(=O)O)c1ccc2c(c1)C(=O)N(Cc1ccccc1)C2=O`: the Ki is greater than 100 µM at Carbonic anhydrase 1, greater than 100 µM at Carbonic anhydrase 12, 47.3 µM on Carbonic anhydrase 9 [1] and greater than 100 µM on Carbonic anhydrase 2.
Regarding `O=C(Nc1ccc(Cl)cc1C(=O)O)c1ccc2c(c1)C(=O)OC2=O`, the affinity on Carbonic anhydrase 9 [1], expressed as Ki, was 0.052 µM.
As to `NS(=O)(=O)c1ccc(N2C(=O)c3ccc(C(=O)Nc4ccc(Cl)cc4C(=O)O)cc3C2=O)cc1`, the results for the inhibition on Carbonic anhydrase 9 [2], on Carbonic anhydrase 9 [3] and at Carbonic anhydrase 9 [4] were 96%, 63% and 84%, respectively. In addition, on Carbonic anhydrase 9 [1], the inhibitory constant (Ki) was determined as 0.0039 µM.
On to `COc1ccc(NC(=O)c2ccc3c(c2)C(=O)N(Cc2ccccc2)C3=O)c(C(=O)O)c1`, for which the figures for the Ki on Carbonic anhydrase 1, at Carbonic anhydrase 12 and at Carbonic anhydrase 9 [1] were greater than 100 µM, greater than 100 µM and 41.9 µM, respectively.
On to `O=C(O)c1ccc(N2C(=O)c3ccc(C(=O)Nc4ccc(Cl)cc4C(=O)O)cc3C2=O)cc1`, for which the inhibition on Carbonic anhydrase 9 [5] was 92%; at Carbonic anhydrase 9 [2] it was 70%; on Carbonic anhydrase 9 [6], 85%; at Carbonic anhydrase 9 [4], 17%. On Carbonic anhydrase 9 [1], this compound yielded a Ki of 0.46 µM.
In the case of `CCOC(=O)c1ccc(N2C(=O)c3ccc(C(=O)Nc4ccc(Cl)cc4C(=O)O)cc3C2=O)cc1`, the Ki at Carbonic anhydrase 9 [1] is 0.53 µM.
Regarding `O=C(Nc1ccc(Cl)cc1C(=O)O)c1ccc2c(c1)C(=O)N(c1ccccc1)C2=O`, the Ki is greater than 100 µM on Carbonic anhydrase 1, greater than 100 µM on Carbonic anhydrase 12 and 5.5 µM at Carbonic anhydrase 9 [1].
